Read-outs that look alike come from different tables or passages of the source. Marks after values point to notes of the source that are not given here.
Assays:
[1] = test system: neurogenic dystrophy of the myocardium; test: Myocardial infarction model (electrostimulation of aortic arch), creatine phosphate in rat myocardium; format: in vivo, rats
From the text: The effect of Compound 2 on myocardial tissue in an experimental model of myocardial infarction was examined. In this model system neurogenic dystrophy of the myocardium was induced in rats or rabbits by electrical stimulation of the reflexogenic zone of the aortic arch by implanted electrodes for a period of three hours. […] These changes are accompanied by changes in biochemical indicators such as creatine phosphate, cAMP, and calcium ion concentrations, and changes in the activity of redox enzymes such as succinate dehydrogenase, lactate dehydrogenase, and glucose-6-phosphate dehydrogenase. At a later stage organic lesions of the myocardium such as necrotic and fibrosclerotic foci can be observed.
The effect of Compound 2 given intraperitoneally or orally on these indicators was examined in rats and rabbits following electrostimulation as described above. The effects on levels of creatine phosphate in rat myocardial are shown in Table 19, and the effects on adenosine triphosphatase (ATPase), succinate dehydrogenase and glucose-6-phosphate dehydrogenase rabbit myocardium are shown in Table 20. The effects on cAMP and Ca^++ levels in rabbit myocardial tissue are shown in FIG. 5, and effects on creatine kinase in rabbit myocardium and blood and the levels of creatine phosphate in myocardium are shown in FIG. 6.

[2] = test system: aseptic full-thickness skin wounds; test: Healing of aseptic full-thickness skin wounds in rats, topical treatment; format: in vivo
From the text: To heal successfully, wounds should be treated with regard to specific features of the various stages of healing process of the wound (Kuzin et al, 1981). The wound-healing effect of salts of N-substituted 1,3-dialkyl-4,5-bis(carbamoyl)imidazolium derivatives was studied in a model of aseptic full-thickness skin wounds in rats (Zapadnyuk et al, 1983). The effect of 10% 1-ethyl-3-methyl-4,5-bis(N-methylcarbamoyl)imidazolium benzensulfonate in a lanolin ointment base was compared to that of Solcoseryl gel and Spasatel balm.
Aseptic full-thickness skin wounds were created in rats under light ether anaesthesia. At a site on the animal's back where the animal could not lick the wound, the skin was shaved, and a circular piece of skin approximately 2.5 cm^2 area was excised with scissors. Following recovery from anaesthesia the animals were kept in separate cages, with normal food and water ad libitum. A total of 100 rats weighing from 200 to 250 g were used, with 20 rats in each group. The groups were as follows:
Treatment was performed 24 hours after the wounding by applying […] once a day in a proportion of 80 mg of ointment per 1 cm^2 of the wound area (8 mg of substance per 1 cm^2) and then daily until healing was complete.
Animals were examined at 5, 10, 15 and 20 days for the following parameters; wound size and wound healing time; weight gain, peripheral blood indicators (total leucocyte count, differential leucocyte count, and erythrocyte sedimentation rate); and biochemical serum indicators (total protein, albumin, globulin, and globulin fractions); and macroscopic and microscopic assessment of wounds. The average complete wound healing period was 16.8±1.9 days for Compound 2, compared to 23.5±2.2 days for Spasatel and 24.0±2.4 days for Solcoseryl.
For measurement of wound size, a sterile object plate was laid over the wound, and its contour was outlined with a marker. The wounds were photographed, the wound outlines were scanned, and their area was calculated using an in-house computer program.

[3] = test system: full-thickness skin wounds; test: Morphological assessment of the wound healing stages; format: in vivo, rats; conditions: Day 15
From the text: An important indicator of wound healing is the morphology and epithelialization of the wound surface (Sarkisov et al, 1981). Samples were taken from experimental animals on the fifth, tenth and fifteenth days of the study described in Example 13, which roughly correspond to the three wound healing stages: the first traumatic inflammation stage is complete by the fifth day, the granulation tissue development stage is complete by the tenth day, and cicatrisation and epithelialization take place from the fifteenth to twentieth days. The results are illustrated in FIG. 1.
A comparative assessment of the healing of a full-thickness wound was performed on the basis of a set of morphological indicators characterising the regeneration process: […]

[4] = test system: lesions of the gastric mucosa; test: Gastric lesions induced by electrostimulation of immobilised rats; format: in vivo
Method: The models used gastric ulcers induced by
a) Electrostimulation of immobilised rats for 3 hours;
The compounds were administered intraperitoneally at a dose of 20 mg/kg; in the cryogenic ulcer model compound 2 was administered either intraperitoneally (10 mg/kg) or orally (20 mg/kg twice daily, ie. a total of 40 mg/kg/day) and was compared to orally-administered gastrocepin (1 mg/kg twice daily, ie. a total of 2 mg/kg/day).

guinea pigs = test: Acute toxicity (LD50) in guinea pigs; format: in vivo; conditions: oral administration
From the text: It is contemplated that in clinical use, treatment using oral tablets will take two to three weeks, with each patient receiving three tablets containing 0.6 g active compound per day.

[5] = Healing effect over the course of 3 days
[6] = Protective effect, 30 minutes before the test

Method for white male mice: The acute toxicity of 1,3-dialkyl-4,5-bis (N-methylcarbamoyl)imidazolium salts was assessed following intraperitoneal injection into 200 white male mice weighing 18 to 20 g. Dead animals were counted daily after the administration of the test substance.

Compound: CC[n+]1cn(C)c(C(=O)NC)c1C(=O)NC.O=S(=O)([O-])c1ccccc1 [Compound 2, 1-methyl-3-ethyl-4,5-bis(N-methylcarbamoyl)-imidazolium benzenesulfonate]
- Level of creatine phosphate (μM/g) in rat myocardium ([1]; Oral 10 mg/kg, 3 days after stimulation): 1.09 ± 0.1 µM/g
- Level of creatine phosphate (μM/g) in rat myocardium ([1]; Oral 10 mg/kg, Before stimulation): 0.80 ± 0.07 µM/g
- Level of creatine phosphate (μM/g) in rat myocardium ([1]; intraperitoneal 10 mg/kg, 3 days after stimulation): 0.95 ± 0.06 µM/g
- Level of creatine phosphate (μM/g) in rat myocardium ([1]; intraperitoneal 10 mg/kg, Before stimulation): 0.92 ± 0.08 µM/g
- Level of creatine phosphate (μM/g) in rat myocardium ([1]; intraperitoneal 20 mg/kg, 3 days after stimulation): 1.07 ± 0.04 µM/g
- Level of creatine phosphate (μM/g) in rat myocardium ([1]; intraperitoneal 20 mg/kg, Before stimulation): 1.04 ± 0.15 µM/g
- Wound area (% of area before treatment) ([2]; 5th day, topical, test compound as 10% ointment): 84.0%
- wound area on the fifteenth day ([2]; 10% Compound 2 ointment): 0.4%
- Wound area (% of area before treatment) ([2]; 10th day, topical, test compound as 10% ointment): 8.1%
- Wound area (% of area before treatment) ([2]; 15th day, topical, test compound as 10% ointment): 0.4%
- Wound area (% of area before treatment) ([2]; 20th day, topical, test compound as 10% ointment): 0.1%
- Epithelialization (duration in days) ([2]; Table 8, topical once a day, Compound 2 as 10% ointment in lanolin): 16.8 ± 1.9*^.** days
- Epithelialization period ([2]; Table 10, topical, test compound as 10% ointment): 16.8 ± 1.9
- average complete wound healing period ([2]; text b167): 16.8 ± 1.9 days
- animals showing complete epithelialization of the wound [3]: 60%
- animals showing incomplete epithelialization [3]: 40%
- % reduction of degree of ulceration [4, 5]: 50%
- Average number of lesions per animal [4, 5]: 1.7 ± 0.2
- % reduction of degree of ulceration [4, 6]: 66%
- % reduction of ulcerated area [4, 6]: 91%
- Area of lesion [4, 6]: 2.8 ± 2.1
- Average number of lesions per animal ([4]; Protective effect, 30 minutes before the test, 20 mg/kg intraperitoneally): 2.4 ± 0.8
- LD50 (white male mice; intraperitoneal injection, white male mice, 14 days observation): 764 mg/kg
- LD50 (white male mice; mice, given intraperitoneally, text b404): 1920 mg/kg
- LD50 (guinea pigs): more than 20000 mg/kg
